# From the supplement of paper PMC10307832
# What was measured:
# Experiment in all cases: relative viability (nuclei count vs DMSO), 5 days (fraction); higher = more cells survive
# [1] = compound: COC1=CC(c2cc3ccccc3[nH]2)=N/C1=C\c1[nH]c(C)cc1C [Obatoclax] + Cc1nc(Nc2ncc(C(=O)Nc3c(C)cccc3Cl)s2)cc(N2CCN(CCO)CC2)n1 [Dasatinib] (partner 0.075 µM)
# Method in brief: (§1)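 Medians of duplicate plates are given as relative viability. That measure is the nuclei count in treated wells divided by the count in vehicle wells. Counts were taken on 4× images of lung cancer cell lines in 1536-well plates, 5 days after pin-tool dosing the day after seeding with one drug alone or a fixed anchor-drug dose plus five library-drug doses (not always all listed) in √10 steps.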
# [2] = compound: COC1=CC(c2cc3ccccc3[nH]2)=N/C1=C\c1[nH]c(C)cc1C [Obatoclax] + CC(=O)Nc1cccc(-n2c(=O)n(C3CC3)c(=O)c3c(Nc4ccc(I)cc4F)n(C)c(=O)c(C)c32)c1 [Trametinib] (partner 0.02 µM)
# Method in brief: as §1
# [3] = compound: COC1=CC(c2cc3ccccc3[nH]2)=N/C1=C\c1[nH]c(C)cc1C [Obatoclax] + NC(=O)Nc1cc(-c2cccc(F)c2)sc1C(=O)N[C@H]1CCCNC1 [AZD7762] (partner 0.2 µM)
# Method in brief: as §1
# [4] = compound: CC(C)C[C@H](NC(=O)[C@H](Cc1ccccc1)NC(=O)c1cnccn1)B(O)O [Bortezomib] + CS(=O)(=O)CCNCc1ccc(-c2ccc3ncnc(Nc4ccc(OCc5cccc(F)c5)c(Cl)c4)c3c2)o1 [Lapatinib] (partner 2 µM)
# Method in brief: as §1
Cell Line,relative viability ([1]; first compound 0.01 µM),relative viability ([1]; first compound 0.03162 µM),relative viability ([1]; first compound 0.1 µM),relative viability ([1]; first compound 0.3162 µM),relative viability ([1]; first compound 1 µM),relative viability ([2]; first compound 0.01 µM),relative viability ([2]; first compound 0.03162 µM),relative viability ([2]; first compound 0.1 µM),relative viability ([2]; first compound 0.3162 µM),relative viability ([2]; first compound 1 µM),relative viability ([3]; first compound 0.01 µM),relative viability ([3]; first compound 0.03162 µM),relative viability ([3]; first compound 0.1 µM),relative viability ([3]; first compound 0.3162 µM),relative viability ([3]; first compound 1 µM),relative viability ([4]; first compound 0.0002 µM),relative viability ([4]; first compound 0.002 µM),relative viability ([4]; first compound 0.006325 µM),relative viability ([4]; first compound 0.02 µM),relative viability ([4]; first compound 0.000632 µM)
LC-2-ad,0.696,0.504,0.507,0.394,0.463,0.954,0.859,0.885,0.905,0.969,0.857,0.888,0.777,0.836,0.438,0.73,0.928,0.258,0.1,–
LCLC-97TM1,0.928,0.746,0.916,0.842,0.682,0.224,0.177,0.203,0.193,0.194,0.218,–,0.203,0.229,0.206,0.651,0.749,0.248,0.118,0.701
LK-2,0.329,0.263,0.394,0.375,0.229,0.846,0.794,1.02,0.783,0.914,0.456,0.374,0.444,–,0.568,0.804,0.498,0.204,0.232,0.922
LOU-NH91,0.557,0.511,0.379,0.486,0.51,0.766,0.784,0.717,0.723,0.592,0.703,0.717,0.646,0.667,0.539,0.795,0.454,0.334,0.287,0.704
LU99A,0.471,0.568,0.575,0.434,0.261,0.598,0.55,–,0.631,0.557,0.379,0.359,–,0.146,0.135,0.939,1.11,0.811,0.171,–
LXF-289,0.23,0.23,0.0916,0.221,0.154,0.642,0.663,0.671,0.707,0.671,1.03,1.07,1.14,1.1,1.09,0.908,0.949,0.115,0.104,0.871
NCI-H23,0.826,0.838,0.825,0.757,0.306,0.384,0.442,0.451,0.357,0.363,0.271,0.313,0.192,0.219,0.158,–,1.06,0.156,0.135,0.866
NCI-H322M,0.257,0.259,–,0.259,0.28,0.547,0.482,0.71,0.535,0.669,0.538,0.556,0.549,0.399,0.4,0.573,0.523,0.541,0.393,–
NCI-H358,0.142,0.193,0.218,0.132,0.114,0.129,0.127,0.165,0.135,0.114,0.519,0.438,0.543,0.307,0.224,0.367,0.43,0.144,0.155,0.431
NCI-H460,0.497,0.385,0.384,0.343,0.21,0.151,0.132,0.232,0.0458,0.0584,0.651,0.537,–,0.617,0.11,0.879,1.03,0.0212,0.014,0.975
NCI-H596,0.618,0.475,0.464,0.502,0.394,0.814,0.784,0.692,0.652,0.565,1.06,1.1,0.773,0.443,0.498,0.947,0.99,0.245,0.264,1
NCI-H647,0.258,0.164,0.149,0.0862,0.0719,0.406,0.475,0.422,0.22,0.127,0.443,0.606,0.207,0.253,0.114,1.05,0.711,0.0371,0.0208,1.05
NCI-H727,0.438,0.287,0.512,0.39,0.348,0.41,0.393,0.414,0.404,0.391,0.747,0.552,0.827,0.573,0.573,0.654,0.864,0.229,0.113,0.872
NCI-H838,0.298,0.25,–,0.277,0.226,0.548,0.559,0.346,0.493,0.248,0.873,0.933,0.776,0.889,0.656,0.897,0.936,0.121,0.114,0.982
NCI-H1355,0.836,0.675,0.538,0.68,0.535,0.403,0.462,0.439,0.35,0.454,0.698,0.709,0.613,0.735,0.647,0.948,1.2,0.6,0.134,0.906
NCI-H1395,0.417,0.416,0.399,0.412,0.432,0.914,0.999,0.931,0.94,0.737,0.396,0.395,0.393,0.375,0.348,0.998,0.449,0.499,0.28,0.79
NCI-H1437,0.559,0.295,0.384,0.355,0.445,0.512,0.471,0.642,0.498,0.359,1.12,1.16,1.03,1.08,0.895,0.655,0.806,0.0943,0.0863,0.878
